One data set deals with glucoamylase. Details: method as in PMID 28482265. The following applies: cited from earlier work.
The test system of a further data set is maltase. Details: method as in PMID 28482265. The conditions noted are these: cited from earlier work.
The subject of another data set is isomaltase. Details: method as in PMID 28482265. The conditions noted are these: cited from earlier work.
Data set [1] has as its target T1, α-amylase from porcine pancreas (Sus scrofa, UniProt P00690).
T1 construct: α-amylase from porcine pancreas (Sigma A3176-500KU, 089K1661); purchased Sigma A3176-500KU (lot 089K1661); host or cells: porcine pancreas
T1 sequence (P00690 16-511): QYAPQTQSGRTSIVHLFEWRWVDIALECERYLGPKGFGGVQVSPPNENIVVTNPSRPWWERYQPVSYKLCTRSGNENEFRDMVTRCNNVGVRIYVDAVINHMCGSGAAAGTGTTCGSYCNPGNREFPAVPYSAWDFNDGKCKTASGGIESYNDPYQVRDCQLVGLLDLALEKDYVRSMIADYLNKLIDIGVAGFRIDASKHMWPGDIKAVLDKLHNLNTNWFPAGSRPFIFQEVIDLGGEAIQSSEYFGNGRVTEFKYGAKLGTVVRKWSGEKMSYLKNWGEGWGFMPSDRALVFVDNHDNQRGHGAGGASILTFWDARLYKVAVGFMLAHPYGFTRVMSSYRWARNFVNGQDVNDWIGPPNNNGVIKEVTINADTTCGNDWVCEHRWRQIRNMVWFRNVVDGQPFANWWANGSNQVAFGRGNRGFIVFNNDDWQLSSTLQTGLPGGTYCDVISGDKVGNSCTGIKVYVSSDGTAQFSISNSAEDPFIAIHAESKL
In words: α-Amylase inhibition assay. In kind it is biochemical. The following applies: mean ± SEM; starch substrate, DNSA. On the procedure: The α-amylase inhibitory activity of sinigrin was determined according to a previously reported method with slight modifications. Briefly, 40 μL of a solution of the test inhibitor and 40 μL of enzyme solution (α-amylase from porcine pancreas (Sigma A3176-500KU, 089K1661) in a buffer of 0.02 M sodium phosphate at pH 6.9 with 0.006 M sodium chloride) were added to a 1.5-mL Eppendorf tube and incubated for 10 min at room temperature. […] Then, 100 μL of DNSA colouring reagent (10 g of sodium potassium tartrate, 1 g of 3,5-dinitrosalicylic acid and 20 mL of 2 N NaOH to a final volume of 100 mL in distilled water) was added, and the mixture was incubated in a boiling water bath for 5 min. After cooling to room temperature, the reaction mixture was diluted to 500 μL using distilled water, and the absorbance was recorded at 540 nm. For non-enzymatic reactions, the assays were performed with a blank containing all of the components except the enzyme. The values of the % inhibition and IC50 were calculated from the results of the assays using the same procedure as that described for the α-glucosidase inhibition assays.

Data set [2] is described as follows: DPPH free radical scavenging assay. The following applies: 100 µg/mL. On the procedure:
Radical scavenging activity was determined by modifying a previously reported 2,2-diphenyl-1-picrylhydrazyl (DPPH) assay. The assay solution consisted of 100 µL of DPPH solution (150 µM), 20 µL of the test compounds solution at increasing concentrations, and enough DMSO to bring the volume of solution in each well to 200 µL. The reaction mixture was then incubated for 30 min at room temperature. Ascorbic acid (vitamin C) was used as a reference inhibitor. The assay measurements were carried out using a micro plate reader (OPTIMax, Tunable) at 520 nm. The reaction rates were compared, and the percentages of inhibition caused by the presence of the test inhibitors were calculated. Each concentration was analysed in three independent experiments run in triplicate.
In general terms: The DPPH test is a chemical assay of radical scavenging.

Another data set has as its target α-glucosidase (Saccharomyces cerevisiae, UniProt P53341). The experiment in a line: Kinetic study of α-glucosidase (Lineweaver-Burk). In kind it is biochemical. The following applies: Lineweaver-Burk plot. As for the experimental part:
To understand the inhibition mechanism of the synthesized compounds on α-glucosidase, an inhibition kinetics study was performed. […] In our evaluation of the kinetics of the enzyme, the Lineweaver-Burk plot of 1/V versus 1/[S] in the presence of different inhibitor concentrations gave a series of straight lines. […] Km increases with increasing concentration, while Vmax remains essentially constant.
A series of experiments was performed to calculate the inhibition kinetics of 5g. The tested concentrations of 5g were 0.00, 0.15 and 0.3. The concentration of substrate, p-nitrophenyl-α-D-glucopyranoside, was between 0.3125 and 10 mM in all the kinetics experiments. The pre-incubation and measurement times were the same as those discussed in the α-glucosidase inhibition assay procedure. The maximal initial velocity was determined from the initial linear portion of absorbance in the first five minutes following the addition of the enzyme at 30 s intervals. The type of inhibition of the enzyme was assessed by preparing Lineweaver-Burk plots of the inverse of the velocities (1/V) versus the inverse of the substrate concentration 1/[S] mM^−1. The EI dissociation constant, Ki, was determined by the secondary plot of 1/V versus the inhibitor concentration.

The source of these data is publication PMC6515238, “Novel C-2 Symmetric Molecules as α-Glucosidase and α-Amylase Inhibitors: Design, Synthesis, Kinetic Evaluation, Molecular Docking and Pharmacokinetics” (Molecules, 2019).

The term IC50 denotes the point on the concentration scale where inhibition reaches its midpoint. A lower IC50 goes with greater potency in that assay. Broadly, the melting point is the temperature, or range, at which the solid turns liquid.

Sequence of α-glucosidase (P53341 whole entry): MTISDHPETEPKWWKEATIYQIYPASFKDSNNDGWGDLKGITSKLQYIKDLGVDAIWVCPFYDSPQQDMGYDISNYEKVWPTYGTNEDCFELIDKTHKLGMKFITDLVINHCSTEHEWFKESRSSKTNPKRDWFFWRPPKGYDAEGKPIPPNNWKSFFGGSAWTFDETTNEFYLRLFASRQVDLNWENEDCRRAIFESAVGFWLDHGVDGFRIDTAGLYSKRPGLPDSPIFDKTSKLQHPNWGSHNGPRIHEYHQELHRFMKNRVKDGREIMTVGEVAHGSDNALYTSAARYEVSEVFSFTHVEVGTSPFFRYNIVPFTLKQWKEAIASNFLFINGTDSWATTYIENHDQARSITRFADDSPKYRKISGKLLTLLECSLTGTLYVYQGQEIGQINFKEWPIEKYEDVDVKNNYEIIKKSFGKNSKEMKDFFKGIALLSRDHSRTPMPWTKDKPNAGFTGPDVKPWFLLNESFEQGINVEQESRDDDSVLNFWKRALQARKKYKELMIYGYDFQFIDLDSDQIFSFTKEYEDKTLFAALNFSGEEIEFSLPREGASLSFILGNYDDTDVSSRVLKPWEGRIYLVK

`C[C@H]1O[C@H](O[C@H]2[C@H](O)[C@@H](O)[C@@H](O[C@H]3[C@H](O)[C@@H](O)C(O)O[C@@H]3CO)O[C@@H]2CO)[C@H](O)[C@@H](O)[C@@H]1N[C@H]1C=C(CO)[C@@H](O)[C@H](O)[C@H]1O` (some centres unmarked) [Acarbose, acarbose]: the inhibition of glucoamylase with glucoamylase is recorded as 90%. For the same compound, the inhibition of maltase with maltase is on record as 60%. Moreover, the inhibition of isomaltase in the data set with isomaltase is on record as 10%.

Take `O=[N+]([O-])c1ccc(/N=N/c2ccc(O)c(/C=N/N=C/c3cc(/N=N/c4ccc([N+](=O)[O-])cc4[N+](=O)[O-])ccc3O)c2)c([N+](=O)[O-])c1` [Compound 5a, (E)-2,2’-((1E,1’E)-Hydrazine-1,2-diylidenebis(methanylylidene))bis(4-((E)-(2,4-dinitrophenyl)diazenyl)phenol)]: the melting point came to 275 °C. The compound further registered a half-inhibitory concentration (IC50) in data set [1] of 8.54 ± 0.653 µM.

For the compound `Oc1ccc(/N=N/c2cccc(Cl)c2Cl)cc1/C=N/N=C/c1cc(/N=N/c2cccc(Cl)c2Cl)ccc1O` [Compound 5b, (E)-2,2’-((1E,1’E)-Hydrazine-1,2-diylidenebis(methanylylidene))bis(4-((E)-(2,3-dichlorophenyl)diazenyl)phenol)], the melting point was 222 °C. Half-maximal inhibition in data set [1] (IC50) was put at 28.4 ± 2.17 µM.

`Oc1ccc(/N=N/c2ccccc2Cl)cc1/C=N/N=C/c1cc(/N=N/c2ccccc2Cl)ccc1O` [Compound 5c, (E)-2,2’-((1E,1’E)-Hydrazine-1,2-diylidenebis(methanylylidene))bis(4-((E)-(2-chlorophenyl)diazenyl)phenol)]: the melting point came to 195 °C. For the same compound, in data set [1], the concentration for half-maximal inhibition (IC50) turned out to be 9.55 ± 0.73 µM.

The compound `Oc1ccc(/N=N/c2ccc(Cl)cc2)cc1/C=N/N=C/c1cc(/N=N/c2ccc(Cl)cc2)ccc1O` [Compound 5d, (E)-2,2’-((1E,1’E)-Hydrazine-1,2-diylidenebis(methanylylidene))bis(4-((E)-(4-chlorophenyl)diazenyl)phenol)] registered a melting point of 205 °C. Further, the concentration for half-maximal inhibition (IC50) in data set [1] was found to be 9.72 ± 0.863 µM. Further, the “Free radical scavenging activity (%)” value in data set [2] is listed as “did not show significant scavenging potencies”.

Regarding `NS(=O)(=O)c1ccc(/N=N/c2ccc(O)c(/C=N/N=C/c3cc(/N=N/c4ccc(S(N)(=O)=O)cc4)ccc3O)c2)cc1` [Compound 5e, 4,4’-((1E,1’E)-(((1E,1’E)-Hydrazine-1,2-diylidenebis(methanylylidene))bis(4-hydroxy-3,1-phenylene))bis(diazene-2,1-diyl))dibenzenesulfonamide], the melting point is 225 °C. 28.5 ± 2.08 µM corresponded to half-maximal inhibition in data set [1] (IC50).

In the case of `O=S(=O)([O-])c1ccc(/N=N/c2ccc(O)c(/C=N/N=C/c3cc(/N=N/c4ccc(S(=O)(=O)[O-])cc4)ccc3O)c2)cc1.[Na+].[Na+]` [Compound 5f, Sodium 4,4’-((1E,1’E)-(((1E,1’E)-hydrazine-1,2-diylidenebis(methanylylidene))bis(4-hydroxy-3,1-phenylene))bis(diazene-2,1-diyl))dibenzenesulfonate], the melting point turned out to be 240 °C. The compound further gave a half-inhibitory concentration (IC50) in data set [1] of 4.29 ± 0.328 µM. In data set [2], the “Free radical scavenging activity (%)” value is “did not show significant scavenging potencies”.

As for `O=[N+]([O-])c1ccc(/N=N/c2ccc(O)c(/C=N/N=C/c3cc(/N=N/c4ccc([N+](=O)[O-])cc4)ccc3O)c2)cc1` [Compound 5g, (E)-2,2’-((1E,1’E)-Hydrazine-1,2-diylidenebis(methanylylidene))bis(4-((E)-(4-nitrophenyl)diazenyl)phenol)], the melting point came to 215 °C. Besides, the IC50 in data set [1] is 0.438 ± 0.042 µM. The type of inhibition result on α-glucosidase is “competitive”. In data set [2], the “Free radical scavenging activity (%)” value is recorded as “did not show significant scavenging potencies”.

In turn, `Oc1ccc(/N=N/c2cccc(Cl)c2)cc1/C=N/N=C/c1cc(/N=N/c2cccc(Cl)c2)ccc1O` [Compound 5h, (E)-2,2’-((1E,1’E)-Hydrazine-1,2-diylidenebis(methanylylidene))bis(4-((E)-(3-chlorophenyl)diazenyl)phenol)] came in with a melting point of 210 °C. In addition, the IC50 in data set [1] was 0.59 ± 0.012 µM.
